Measured values taken from US8247211B2, “Glycopeptide antibiotics” (American Cyanamid Company, priority 2001, dated 2012).

Experiments:
Escherichia coli = experiment: In vitro antibacterial evaluation: minimum inhibitory concentration (MIC), broth dilution method; type: cell-based; conditions: 5×10^5 CFU/mL, 18 hours at 35° C.
Outline: (§1)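 An MIC is reported for each organism as the least concentration giving inhibition, using broth dilution over 64-0.06 μg/mL with a 5×10^5 CFU/mL inoculum.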

Streptococcus sp. = experiment: as above; type: cell-based; conditions: broth dilution, 18 hours at 35° C.
Outline: as §1

Staphylococcus sp. = experiment: as above; type: cell-based; conditions: for MIC Staphylococcus aureus (ATCC 29213): strain ATCC 29213; for MIC Staphylococcus aureus (GC 1131): strain GC 1131; for MIC Staphylococcus aureus (GC 3051): strain GC 3051; for MIC Staphylococcus aureus (GC 3053): strain GC 3053; for MIC Staphylococcus aureus (GC 4541): strain GC 4541; for MIC Staphylococcus aureus (GC 4545): strain GC 4545; for MIC Staphylococcus haemolyticus (GC 4546): strain GC 4546; for MIC Coagulase Negative Staphylococcus (GC 4547): strain GC 4547; for MIC Coagulase Negative Staphylococcus (GC 6257): strain GC 6257; for MIC Staphylococcus aureus (GC 4542): strain GC 4542; for MIC Staphylococcus aureus-SMITH (GC 4543): strain GC 4543; for MIC Staphylococcus aureus (GC 4544): strain GC 4544; for MIC Coagulase Negative Staphylococcus (GC 4548): strain GC 4548; for MIC Coagulase Negative Staphylococcus (GC 4549): strain GC 4549; for MIC Coagulase Negative Staphylococcus (GC 4551): strain GC 4551; for MIC Coagulase Negative Staphylococcus (ID-3941): strain ID-3941
Outline: as §1

Enterococcus sp. = experiment: as above; type: cell-based; conditions: broth dilution, 18 hours at 35° C.
Outline: as §1

[1] = Anatomic pathology (heart and kidney histopathology) in mice; type: in vivo, CD-1 mice; conditions: 20 mg/kg intravenously daily for 9 days, microscopic histopathology on day 10
Outline: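 Juvenile CD-1 mice (20 days old; 5 vehicle, 5 treated) received glycopeptide antibiotic 20 mg/kg i.v. daily for 9 days. Necropsied tissues formalin-fixed, paraffin-embedded, H&E stained and examined microscopically; findings graded slight to severe versus controls.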

[2] = tested on: Streptococcus pneumoniae (GC 1894), penicillin resistant strain; experiment: Acute lethal infection in mice (ED50); type: in vivo; conditions: female CD-1 mice, intraperitoneal challenge, intravenous dose 30 min. after infection, 7 day survival ratios
Outline: (§2)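 Lethal systemic infection model: female CD-1 mice, 20 ± 1-2 g, intraperitoneal challenge. Single intravenous treatment 30 min after infection; 7-day survival, pooled from 3 tests, gives ED50.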

[3] = tested on: Enterococcus faecalis (GC 6189), vancomycin resistant strain; experiment: Acute lethal infection in mice (ED50); type: in vivo; conditions: female CD-1 mice, intraperitoneal challenge, intravenous dose 30 min. after infection, 7 day survival ratios
Outline: as §2

[4] = tested on: Staphylococcus aureus-SMITH (GC 4543); experiment: Acute lethal infection in mice (ED50); type: in vivo; conditions: female CD-1 mice, intraperitoneal challenge, intravenous dose 30 min. after infection, 7 day survival ratios
Outline: as §2

[5] = broth dilution, 18 hours at 35° C.

N=C1NCC(C(O)C2NC(=O)C(Cc3ccc(OC4OC(CO)C(OC5OC6COC7(OC6C(O)C5O)C5CC6CC(C5)CC7C6)C(O)C4O)cc3)NC(=O)C(CC3CCCCC3)NC(=O)CNC(=O)C(CO)NC(=O)C(C(O)C3CNC(=N)N3C3OC(CO)C(O)C(O)C3O)NC2=O)N1 (stereo not drawn) [Example 106, Cyclo[3-cyclohexylalanyl-O-[4-O-[4,6-O-(2-adamantylidene)hexopyranosyl]hexopyranosyl]-tyrosyl-3-(2-iminoimidazolidin-4-yl)seryl-3-(3-hexopyranosyl-2-iminoimidazolidin-4-yl)-serylserylglycyl]]
1 to 2 µg/mL: MIC Enterococcus avium (GC 4558) (Enterococcus sp.; Enterococcus avium (GC 4558)) | MIC Enterococcus faecalis (GC 2691) (Enterococcus sp.; Enterococcus faecalis (GC 2691)) | MIC Enterococcus faecalis (GC 3059) (Enterococcus sp.; Enterococcus faecalis (GC 3059)) | MIC Enterococcus faecalis (GC 4552) (Enterococcus sp.; Enterococcus faecalis (GC 4552)) | MIC Enterococcus faecalis (GC 4553) (Enterococcus sp.; Enterococcus faecalis (GC 4553)) | MIC Enterococcus faecalis (GC 4554) (Enterococcus sp.; Enterococcus faecalis (GC 4554)) | MIC Enterococcus faecalis (GC 6189) (Enterococcus sp.; Enterococcus faecalis (GC 6189)) | MIC Enterococccus avium (GC 4558) (Enterococcus sp.; 5×10^5 CFU/mL) | MIC Enterococccus faecalis (GC 2691) (Enterococcus sp.; 5×10^5 CFU/mL) | MIC Enterococccus faecalis (GC 3059) (Enterococcus sp.; 5×10^5 CFU/mL) | MIC Enterococccus faecalis (GC 4552) (Enterococcus sp.; 5×10^5 CFU/mL) | MIC Enterococccus faecalis (GC 4553) (Enterococcus sp.; 5×10^5 CFU/mL) | MIC Enterococccus faecalis (GC 4554) (Enterococcus sp.; 5×10^5 CFU/mL) | MIC Enterococccus faecalis (GC 6189) (Enterococcus sp.; 5×10^5 CFU/mL)
0.25 µg/mL: MIC Coagulase Negative Staphylococcus (GC 6257) (Staphylococcus sp.) | MIC Coagulase Negative Staphylococcus (GC 6257) (Staphylococcus sp.; [5])
0.5 to 2 µg/mL: MIC Escherichia coli (GC 4560) (Escherichia coli) | MIC Staphylococcus aureus (ATCC 29213) (Staphylococcus sp.) | MIC Staphylococcus aureus (ATCC 29213) (Staphylococcus sp.; [5]) | MIC Staphylococcus aureus (GC 1131) (Staphylococcus sp.) | MIC Staphylococcus aureus (GC 1131) (Staphylococcus sp.; [5]) | MIC Staphylococcus aureus (GC 3051) (Staphylococcus sp.) | MIC Staphylococcus aureus (GC 3051) (Staphylococcus sp.; [5]) | MIC Staphylococcus aureus (GC 3053) (Staphylococcus sp.) | MIC Staphylococcus aureus (GC 3053) (Staphylococcus sp.; [5]) | MIC Staphylococcus aureus (GC 4541) (Staphylococcus sp.) | MIC Staphylococcus aureus (GC 4541) (Staphylococcus sp.; [5]) | MIC Staphylococcus aureus (GC 4545) (Staphylococcus sp.) | MIC Staphylococcus aureus (GC 4545) (Staphylococcus sp.; [5]) | MIC Coagulase Negative Staphylococcus (GC 4547) (Staphylococcus sp.) | MIC Coagulase Negative Staphylococcus (GC 4547) (Staphylococcus sp.; [5]) | MIC Enterococcus faecalis (ATCC 29212) (Enterococcus sp.; Enterococcus faecalis (ATCC 29212)) | MIC Enterococcus faecalis (GC 2242) (Enterococcus sp.; Enterococcus faecalis (GC 2242)) | MIC Enterococcus faecium (GC 2243) (Enterococcus sp.; Enterococcus faecium (GC 2243)) | MIC Enterococcus faecium (GC 4556) (Enterococcus sp.; Enterococcus faecium (GC 4556)) | MIC Enterococcus faecium (GC 4557) (Enterococcus sp.; Enterococcus faecium (GC 4557)) | MIC Enterococccus faecalis (ATCC 29212) (Enterococcus sp.; 5×10^5 CFU/mL) | MIC Enterococccus faecium (GC 2243) (Enterococcus sp.; 5×10^5 CFU/mL) | MIC Enterococccus faecium (GC 4556) (Enterococcus sp.; 5×10^5 CFU/mL) | MIC Enterococccus faecium (GC 4557) (Enterococcus sp.; 5×10^5 CFU/mL) | MIC Enterococcus faecalis (GC 2242) (Enterococcus sp.; 5×10^5 CFU/mL)
0: Anatomical Pathology (Day 10), Heart [1]
32 to 64 µg/mL: MIC Escherichia coli (ATCC 25922) (Escherichia coli) | MIC Escherichia coli (GC 4559) (Escherichia coli)
0.07 mg/kg: median effective dose (ED50), Streptococcus pneumoniae (GC 1894) [2]
0.5 to 1 µg/mL: MIC Staphylococcus haemolyticus (GC 4546) (Staphylococcus sp.) | MIC Staphylococcus haemolyticus (GC 4546) (Staphylococcus sp.; [5])
<0.03 µg/mL: MIC Streptococcus agalactiae (GC 4564) (Streptococcus sp.; Streptococcus agalactiae (GC 4564)) | MIC Streptococcus pneumoniae (ATCC 6301) (Streptococcus sp.; Streptococcus pneumoniae (ATCC 6301)) | MIC Streptococcus pneumoniae (GC 1894) (Streptococcus sp.; Streptococcus pneumoniae (GC 1894)) | MIC Streptococcus pneumoniae (GC 4565) (Streptococcus sp.; Streptococcus pneumoniae (GC 4565)) | MIC Streptococcus pyogenes (GC 4563) (Streptococcus sp.; Streptococcus pyogenes (GC 4563)) | MIC Streptococcus agalactiae (GC 4564) (Streptococcus sp.; 5×10^5 CFU/mL) | MIC Streptococcus pneumoniae (GC 1894) (Streptococcus sp.; 5×10^5 CFU/mL) | MIC Streptococcus pneumoniae (GC 4565) (Streptococcus sp.; 5×10^5 CFU/mL) | MIC Streptococcus pneumonine (ATCC 6301) (Streptococcus sp.; 5×10^5 CFU/mL) | MIC Streptococcus pyogenes (GC 4563) (Streptococcus sp.; 5×10^5 CFU/mL)

CCCC(C)C1OCC2OC(OC3C(CO)OC(Oc4ccc(CC5NC(=O)C(C(C)c6ccccc6)NC(=O)CNC(=O)C(CO)NC(=O)C(C(O)C6CNC(=N)N6C6OC(CO)C(O)C(O)C6O)NC(=O)C(C(O)C6CNC(=N)N6)NC5=O)cc4)C(O)C3O)C(O)C(O)C2O1 (stereo not drawn) [Example 111]
2 µg/mL: MIC Enterococccus avium (GC 4558) (Enterococcus sp.; 5×10^5 CFU/mL) | MIC Enterococccus faecalis (ATCC 29212) (Enterococcus sp.; 5×10^5 CFU/mL) | MIC Enterococccus faecalis (GC 4552) (Enterococcus sp.; 5×10^5 CFU/mL) | MIC Enterococccus faecalis (GC 4553) (Enterococcus sp.; 5×10^5 CFU/mL) | MIC Enterococccus faecalis (GC 4554) (Enterococcus sp.; 5×10^5 CFU/mL) | MIC Enterococccus faecium (GC 4556) (Enterococcus sp.; 5×10^5 CFU/mL)
0.03 mg/kg: median effective dose (ED50), Streptococcus pneumoniae (GC 1894) [2]
0.28 mg/kg: median effective dose (ED50), Enterococcus faecalis (GC 6189) [3]
32 µg/mL: MIC Escherichia coli (ATCC 25922) (Escherichia coli)
1 µg/mL: MIC Streptococcus agalactiae (GC 4564) (Streptococcus sp.; 5×10^5 CFU/mL) | MIC Staphylococcus aureus (ATCC 29213) (Staphylococcus sp.) | MIC Staphylococcus aureus (ATCC 29213) (Staphylococcus sp.; [5]) | MIC Staphylococcus aureus (GC 1131) (Staphylococcus sp.) | MIC Staphylococcus aureus (GC 1131) (Staphylococcus sp.; [5]) | MIC Staphylococcus aureus (GC 4541) (Staphylococcus sp.) | MIC Staphylococcus aureus (GC 4541) (Staphylococcus sp.; [5]) | MIC Staphylococcus aureus (GC 4542) (Staphylococcus sp.) | MIC Staphylococcus aureus (GC 4542) (Staphylococcus sp.; [5]) | MIC Staphylococcus aureus-SMITH (GC 4543) (Staphylococcus sp.; 18 hours at 35° C.) | MIC Staphylococcus aureus-SMITH (GC 4543) (Staphylococcus sp.; [5]) | MIC Staphylococcus aureus (GC 4544) (Staphylococcus sp.) | MIC Staphylococcus aureus (GC 4544) (Staphylococcus sp.; [5]) | MIC Staphylococcus aureus (GC 4545) (Staphylococcus sp.) | MIC Staphylococcus aureus (GC 4545) (Staphylococcus sp.; [5]) | MIC Staphylococcus haemolyticus (GC 4546) (Staphylococcus sp.) | MIC Staphylococcus haemolyticus (GC 4546) (Staphylococcus sp.; [5]) | MIC Coagulase Negative Staphylococcus (GC 4548) (Staphylococcus sp.) | MIC Coagulase Negative Staphylococcus (GC 4548) (Staphylococcus sp.; [5]) | MIC Coagulase Negative Staphylococcus (GC 4551) (Staphylococcus sp.) | MIC Coagulase Negative Staphylococcus (GC 4551) (Staphylococcus sp.; [5]) | MIC Coagulase Negative Staphylococcus (ID-3941) (Staphylococcus sp.) | MIC Coagulase Negative Staphylococcus (ID-3941) (Staphylococcus sp.; [5]) | MIC Enterococccus faecium (GC 2243) (Enterococcus sp.; 5×10^5 CFU/mL) | MIC Enterococcus faecalis (GC 2242) (Enterococcus sp.; 5×10^5 CFU/mL)
0.14 mg/kg: median effective dose (ED50), Staphylococcus aureus-SMITH (GC 4543) [4]
0.5 µg/mL: MIC Streptococcus pneumoniae (GC 4565) (Streptococcus sp.; 5×10^5 CFU/mL) | MIC Streptococcus pyogenes (ID-3187) (Streptococcus sp.; 5×10^5 CFU/mL) | MIC Coagulase Negative Staphylococcus (GC 4547) (Staphylococcus sp.) | MIC Coagulase Negative Staphylococcus (GC 4547) (Staphylococcus sp.; [5]) | MIC Coagulase Negative Staphylococcus (GC 4549) (Staphylococcus sp.) | MIC Coagulase Negative Staphylococcus (GC 4549) (Staphylococcus sp.; [5]) | MIC Enterococccus faecium (GC 4557) (Enterococcus sp.; 5×10^5 CFU/mL)
